From patent US9884063B2, “Amido-substituted azole compounds” (Bayer Pharma Aktiengesellschaft, priority 2014, dated 2018)

Columns and labels:
TNKS2 = biological target: T1, TNKS2 (Homo sapiens, UniProt Q9H2K2); assay: Modified TNKS2 Assay 2 (auto-parsylation, [3H]-NAD+ SPA); format: biochemical; details: 6 nM TNKS2, 96 well
T1 sequence (Q9H2K2 1-1166): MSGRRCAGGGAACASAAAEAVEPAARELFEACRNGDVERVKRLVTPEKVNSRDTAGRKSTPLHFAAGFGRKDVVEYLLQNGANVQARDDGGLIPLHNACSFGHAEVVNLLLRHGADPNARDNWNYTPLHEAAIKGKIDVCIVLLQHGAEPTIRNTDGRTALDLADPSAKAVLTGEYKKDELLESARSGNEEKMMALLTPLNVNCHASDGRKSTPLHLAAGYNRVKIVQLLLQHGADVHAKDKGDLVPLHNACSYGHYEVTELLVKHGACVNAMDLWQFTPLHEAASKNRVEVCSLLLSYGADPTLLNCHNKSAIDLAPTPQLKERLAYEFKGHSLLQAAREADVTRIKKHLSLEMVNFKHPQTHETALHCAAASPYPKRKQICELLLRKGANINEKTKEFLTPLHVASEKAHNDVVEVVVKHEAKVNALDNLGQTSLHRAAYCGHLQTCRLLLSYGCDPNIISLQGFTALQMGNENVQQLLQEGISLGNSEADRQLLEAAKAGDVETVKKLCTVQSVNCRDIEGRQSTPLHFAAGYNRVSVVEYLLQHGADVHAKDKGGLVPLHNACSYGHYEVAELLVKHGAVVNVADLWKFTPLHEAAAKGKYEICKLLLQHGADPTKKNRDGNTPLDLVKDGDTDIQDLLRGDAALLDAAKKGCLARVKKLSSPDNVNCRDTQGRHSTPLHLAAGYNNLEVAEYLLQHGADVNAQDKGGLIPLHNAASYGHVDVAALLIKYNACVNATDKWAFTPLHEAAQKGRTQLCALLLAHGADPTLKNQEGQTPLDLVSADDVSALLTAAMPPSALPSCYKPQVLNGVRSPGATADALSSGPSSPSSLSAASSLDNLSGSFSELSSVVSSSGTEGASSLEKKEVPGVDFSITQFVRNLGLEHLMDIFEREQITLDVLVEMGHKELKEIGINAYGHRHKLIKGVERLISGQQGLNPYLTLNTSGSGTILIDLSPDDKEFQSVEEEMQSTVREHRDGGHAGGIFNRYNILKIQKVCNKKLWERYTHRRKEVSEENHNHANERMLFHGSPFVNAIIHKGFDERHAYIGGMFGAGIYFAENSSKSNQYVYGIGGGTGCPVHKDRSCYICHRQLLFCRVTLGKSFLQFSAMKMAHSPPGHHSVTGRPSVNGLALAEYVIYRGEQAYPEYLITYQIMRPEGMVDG

[1] = test system: wildtype Wnt signaling cascade; assay: HEK293 TOP Assay (Super TopFlash luciferase reporter, Wnt-3a stimulated); format: cell-based; details: Homo sapiens, HEK293, 16 h
Summary of the method: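 Compounds (50 μM down to 15 nM, 3.16-fold steps, in CAFTY buffer pH 7.4, 2 mM Ca2+, 0.01% BSA) tested in parallel on TOP and FOP HEK293 reporter lines to define selective wildtype Wnt inhibition. Pathway driven by recombinant human Wnt-3a applied at 2500–5 ng/ml in two-fold dilutions.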

[2] = HEK293 TOP reporter cell line, Wnt-3a at EC50, 16 hours incubation, compound dilution series 50 μM to 15 nM
[3] = HEK293 TOP reporter cells, Wnt3a at EC50, 16 hours, luciferase

SMILES	IC50 (TNKS2)	IC50 [1, 2]	IC50 [1, 3]
O=C(Nc1ccc(NC(=O)c2nc[nH]c2C(=O)NC2CC2)cc1)c1ccc(F)cc1 [Example 131, N^5-cyclopropyl-N^4-{4-[(4-fluorobenzoyl)amino]phenyl}-1H-imidazole-4,5-dicarboxamide]	> 10000 nM	9200 nM	–
O=C(Nc1ccc(NC(=O)c2nc[nH]c2C(=O)NCCN2CCC2)cc1)c1ccc(F)cc1 [Example 199, N^5-[2-(azetidin-1-yl)ethyl]-N^4-{4-[(4-fluorobenzoyl)amino]phenyl}-1H-imidazole-4,5-dicarboxamide]	130 nM	1030 nM	–
CN1CCN(C(C)(C)CNC(=O)c2[nH]cnc2C(=O)Nc2ccc(NC(=O)c3ccc(F)cc3Cl)cc2)CC1 [Example 187, N^4-{4-[(2-chloro-4-fluorobenzoyl)amino]phenyl}-N^5-[2-methyl-2-(4-methylpiperazin-1-yl)propyl]-1H-imidazole-4,5-dicarboxamide]	100 nM	350 nM	–
CNC(=O)c1ncoc1C(=O)Nc1ccc(NC(=O)c2ccc(F)cc2Cl)cc1 [Example 11, N^5-{4-[(2-chloro-4-fluorobenzoyl)amino]phenyl}-N^4-methyl-1,3-oxazole-4,5-dicarboxamide]	910 nM	730 nM	730 nM
O=C(Nc1ccc(NC(=O)c2[nH]cnc2C(=O)NCC(F)(F)F)cc1)c1ccc(F)cc1Cl [Example 30, N^4-{4-[(2-chloro-4-fluorobenzoyl)amino]phenyl}-N^5-(2,2,2-trifluoroethyl)-1H-imidazole-4,5-dicarboxamide]	40 nM	190 nM	160 nM
CC1CCN(CCNC(=O)c2nc[nH]c2C(=O)Nc2ccc(NC(=O)c3ccc(F)cc3Cl)cc2)CC1 [Example 126, N^5-{4-[(2-chloro-4-fluorobenzoyl)amino]phenyl}-N^4-[2-(4-methylpiperidin-1-yl)ethyl]-1H-imidazole-4,5-dicarboxamide]	7 nM	40 nM	–
CNC(=O)c1nc[nH]c1C(=O)Nc1ccc(NC(=O)c2cc(OC)ccc2Cl)cc1 [Example 248, N^5-{4-[(2-chloro-5-methoxybenzoyl)amino]phenyl}-N^4-methyl-1H-imidazole-4,5-dicarboxamide]	480 nM	850 nM	–
CNC(=O)c1nc[nH]c1C(=O)Nc1ccc(NC(=O)c2ccc(F)cc2)cc1 [Example 20, N^5-{4-[(4-fluorobenzoyl)amino]phenyl}-N^4-methyl-1H-imidazole-4,5-dicarboxamide]	> 10000 nM	11200 nM	3350 nM
CNC(=O)c1nc[nH]c1C(=O)Nc1ccc(NC(=O)c2c(Cl)cccc2Cl)cc1 [Example 26, N^5-{4-[(2,6-dichlorobenzoyl)amino]phenyl}-N^4-methyl-1H-imidazole-4,5-dicarboxamide]	1600 nM	1350 nM	800 nM
CNC(=O)c1nc[nH]c1C(=O)Nc1ccc(NC(=O)c2ccc(OCCN(C)C)cc2Cl)cc1 [Example 25, N^5-[4-({2-chloro-4-[2-(dimethylamino)ethoxy]benzoyl}amino)phenyl]-N^4-methyl-1H-imidazole-4,5-dicarboxamide]	220 nM	720 nM	720 nM
CC(C)(CN1CCCCC1)NC(=O)c1[nH]cnc1C(=O)Nc1ccc(NC(=O)c2ccc(F)cc2Cl)cc1 [Example 184, N^4-{4-[(2-chloro-4-fluorobenzoyl)amino]phenyl}-N^5-[2-methyl-1-(piperidin-1-yl)propan-2-yl]-1H-imidazole-4,5-dicarboxamide]	50 nM	820 nM	–
CCS(=N)(=O)c1ccc(C(=O)Nc2ccc(NC(=O)c3[nH]cnc3C(=O)NC)cc2)c(Cl)c1 (stereo not drawn) [Example 255, N^5-(4-{[2-chloro-4-(S-ethylsulfonimidoyl)benzoyl]amino}phenyl)-N^4-methyl-1H-imidazole-4,5-dicarboxamide]	640 nM	1240 nM	–
O=C(Nc1ccc(NC(=O)c2nc[nH]c2C(=O)NCCF)cc1)c1ccccc1Cl [Example 166, N^4-{4-[(2-chlorobenzoyl)amino]phenyl}-N^5-(2-fluoroethyl)-1H-imidazole-4,5-dicarboxamide]	330 nM	530 nM	–

Other lines, results leading:

IC50 (TNKS2)	IC50 [1, 2]	IC50 [1, 3]	SMILES
140 nM	620 nM	–	CNC(=O)c1nc[nH]c1C(=O)Nc1ccc(NC(=O)c2c(F)cc(F)cc2Cl)cc1 [Example 118, N^5-{4-[(2-chloro-4,6-difluorobenzoyl)amino]phenyl}-N^4-methyl-1H-imidazole-4,5-dicarboxamide]
> 10000 nM	12000 nM	–	CNC(=O)c1nc[nH]c1C(=O)Nc1ccc(NC(=O)c2ccc(OC(F)(F)F)cc2F)cc1 [Example 253, N^5-(4-{[2-fluoro-4-(trifluoromethoxy)benzoyl]amino}phenyl)-N^4-methyl-1H-imidazole-4,5-dicarboxamide]
570 nM	400 nM	–	CNC(=O)c1nc[nH]c1C(=O)Nc1ccc(NC(=O)c2ncccc2Cl)cc1 [Example 247, N^5-(4-{[(3-chloropyridin-2-yl)carbonyl]amino}phenyl)-N^4-methyl-1H-imidazole-4,5-dicarboxamide]
60 nM	420 nM	–	O=C(Nc1ccc(NC(=O)c2nc[nH]c2C(=O)NC2CCOC2)cc1)c1ccc(F)cc1Cl (stereo not drawn) [Example 236, N^4-{4-[(2-chloro-4-fluorobenzoyl)amino]phenyl}-N^5-(tetrahydrofuran-3-yl)-1H-imidazole-4,5-dicarboxamide]
3400 nM	2130 nM	2050 nM	CN(C)C(=O)c1nc[nH]c1C(=O)Nc1ccc(NC(=O)c2ccc(F)cc2Cl)cc1 [Example 24, N^5-{4-[(2-chloro-4-fluorobenzoyl)amino]phenyl}-N^4,N^4-dimethyl-1H-imidazole-4,5-dicarboxamide]
> 10000 nM	7900 nM	–	CNC(=O)c1nc[nH]c1C(=O)Nc1ccc(NC(=O)c2ccc(OC(F)F)cc2F)cc1 [Example 251, N^5-(4-{[4-(difluoromethoxy)-2-fluorobenzoyl]amino}phenyl)-N^4-methyl-1H-imidazole-4,5-dicarboxamide]
580 nM	870 nM	–	O=C(Nc1ccc(NC(=O)c2nc[nH]c2C(=O)NCCCN2CCOCC2)cc1)c1ccccc1Cl [Example 200, N^4-{4-[(2-chlorobenzoyl)amino]phenyl}-N^5-[3-(morpholin-4-yl)propyl]-1H-imidazole-4,5-dicarboxamide]
430 nM	750 nM	–	CNC(=O)c1nc[nH]c1C(=O)Nc1ccc(NC(=O)c2cnccc2Cl)cc1 [Example 254, N^5-(4-{[(4-chloropyridin-3-yl)carbonyl]amino}phenyl)-N^4-methyl-1H-imidazole-4,5-dicarboxamide]
210 nM	710 nM	–	CC(C)(CN1CCOCC1)NC(=O)c1[nH]cnc1C(=O)Nc1ccc(NC(=O)c2ccc(F)cc2Cl)cc1 [Example 207, N^4-{4-[(2-chloro-4-fluorobenzoyl)amino]phenyl}-N^5-[2-methyl-1-(morpholin-4-yl)propan-2-yl]-1H-imidazole-4,5-dicarboxamide]
1800 nM	1900 nM	–	CNC(=O)c1nc[nH]c1C(=O)Nc1ccc(NC(=O)c2ccccc2C(F)F)cc1 [Example 241, N^5-(4-{[2-(difluoromethyl)benzoyl]amino}phenyl)-N^4-methyl-1H-imidazole-4,5-dicarboxamide]
> 10000 nM	11500 nM	–	CNC(=O)c1nc[nH]c1C(=O)Nc1ccc(NC(=O)c2ccccc2OC(F)(F)F)cc1 [Example 243, N^4-methyl-N^5-(4-{[2-(trifluoromethoxy)benzoyl]amino}phenyl)-1H-imidazole-4,5-dicarboxamide]
